In PubChem BioAssay (NCI) one finds GI50 and TGI data, which are given here for ten compounds.

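The compound was tested at five concentrations on cells cultured in 96-well plates, with a 48-hour exposure period. GI50 marks 50% less growth. Definition used: TGI = concentration required for complete inhibition of growth.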

Holding throughout (experiment): DTP human tumour cell line panel, 48 h
For experiment [1], the system named is HCC-2998 colon.
Experiment [2] has as its system LOX IMVI melanoma.
For experiment [3], the system named is MDA-MB-231 breast.
In experiment [4] the test system is ACHN renal.
In experiment [5] the test system is TK-10 renal.
For experiment [6], the system named is SK-OV-3 ovarian.
Experiment [7] relates to HOP-92 NSCLC.
Experiment [8] has as its system M14 melanoma.
The test system of experiment [9] is DMS 114 small cell lung.

In the case of `Nc1c(C(=O)N/N=C/c2ccc(-c3cc(Cl)c(Cl)cc3Cl)o2)cnn1-c1ccnc2c(C(F)(F)F)cccc12`, the GI50 (usually the concentration giving 50% growth inhibition) in [1] is 3.64 µM; in [2], 4.37 µM; in experiment [3] it was 3.83 µM; in experiment [4], 3.55 µM; in experiment [5], 3.48 µM; in [6], 4.81 µM. Moreover, the GI50 in [7] was 2.57 µM; in experiment [8], 5.28 µM. The TGI (usually the concentration giving total growth inhibition) in experiment [1] was greater than 100 µM; in [2], greater than 100 µM; in [3], 22 µM; in [4], greater than 100 µM; in experiment [5], greater than 100 µM; in experiment [6], 73 µM. The figures for the TGI in experiment [7] and in experiment [8] were 7 µM and greater than 100 µM, respectively.
Turning to `Cc1cc(C)c(S(=O)(=O)N(CCc2cccc(Br)c2)Cc2ccc(-c3cccc(S(C)(=O)=O)c3)cc2)c(C)c1`, the GI50 in experiment [1], in experiment [2], in experiment [3], in experiment [4], in experiment [5] and in experiment [6] was greater than 100 µM each time. For the same compound, the GI50 in experiment [7] and in experiment [8] was greater than 100 µM throughout. The TGI in experiment [1], in experiment [2], in [3], in [4], in [5] and in experiment [6] was greater than 100 µM in each case. Also, the total growth inhibition concentration (TGI) in [7] and in experiment [8] was greater than 100 µM in each case.
In the case of `CCC1(NC(=O)c2cc(F)c(F)c(F)c2F)C(=O)NC(=O)N(C(C)C)C1=O` (configuration not stated), the GI50 in experiment [1] is 1.94 µM; in experiment [2], 16.7 µM; in [3], 19.3 µM; in experiment [4], 73.5 µM; in experiment [5], greater than 100 µM; in [6], 23.2 µM. The GI50 in experiment [7] was 17.4 µM; in [8], 10.3 µM. Besides, the TGI was 3.97 µM in experiment [1]; 54.5 µM in [2]; 48.7 µM in experiment [3]; greater than 100 µM in experiment [4]; greater than 100 µM in experiment [5]; 51.1 µM in experiment [6]. The values for the TGI in [7] and in experiment [8] were 63.7 µM and 34.6 µM, respectively.
Turning to `O=C(O)c1ccccc1N=Nc1ccc2oc(=O)c(C(=O)Nc3ccccc3)cc2c1`, the TGI in experiment [2] was greater than 100 µM; in experiment [9], 76.9 µM; in experiment [4], greater than 100 µM; in experiment [5], greater than 100 µM; in [6], greater than 100 µM; in experiment [8], greater than 100 µM.
Regarding `O=C(N/N=C/c1ccc(Cl)cc1Cl)c1ccc2nc(-c3ccc(Cl)cc3)[nH]c2c1`, the GI50 in experiment [1] was 1.82 µM; in experiment [2], 1.57 µM; in experiment [3], 1.85 µM; in experiment [4], 1.74 µM; in experiment [5], 2.06 µM; in experiment [6], 1.79 µM. Further, the figures for the GI50 in experiment [7] and in experiment [8] were 1.67 µM and 1.65 µM, respectively. For the same compound, the TGI in experiment [1] was found to be 3.44 µM; in experiment [2], 2.94 µM; in [3], 3.77 µM; in [4], 3.17 µM; in [5], 4.3 µM; in [6] it was 4.31 µM. Further, the TGI was determined as 3.53 µM in experiment [7] and 3.84 µM in [8].
Regarding `CCOc1nccc2c1nc(-c1nonc1N)n2CC`, the GI50 in experiment [1], in experiment [2], in [3], in experiment [4], in experiment [5] and in [6] was greater than 25 µM throughout. The GI50 is 1.17 µM in [7] and greater than 25 µM in [8]. Besides, the TGI in experiment [1], in experiment [2], in experiment [3], in [4], in [5] and in experiment [6] was greater than 25 µM in each case. Besides, the TGI in experiment [7] and in experiment [8] was greater than 25 µM each time.
As for `COC(=O)[C@H](C)NC(=O)[C@@H](OC)[C@@H]1Cc2cc3cc(OC4CC(OC5CC(O)C(O)C(C)O5)C(O)C(C)O4)c(C)c(O)c3c(O)c2C(=O)[C@H]1OC1CC(OC2CC(OC3CC(C)(O)C(O)C(C)O3)C(O)C(C)O2)C(O)C(C)O1` (some centres not stated), the GI50 was 0.16 µM in experiment [1]; 0.0308 µM in experiment [2]; 0.247 µM in experiment [3]; 0.119 µM in experiment [4]; 0.336 µM in [5]; 0.359 µM in experiment [6]. Besides, the GI50 in [7] is 0.115 µM; in experiment [8], 0.113 µM. In addition, the TGI in experiment [1] was 2.08 µM; in experiment [2] it was greater than 50 µM; in experiment [3], greater than 50 µM; in experiment [4], 2.23 µM; in [5] it was greater than 50 µM; in experiment [6], greater than 50 µM. Also, the TGI in experiment [7] was found to be 7.1 µM; in experiment [8], 1.41 µM.
In the case of `CCNNC(=O)[C@@H]1[C@H](c2cc(OC)c(OC)c(OC)c2)c2cc3c(cc2[C@H](O)[C@H]1CO)OCO3`, the GI50 in experiment [1] was 0.374 µM; in experiment [2], 0.357 µM; in experiment [3], 0.5 µM; in experiment [4], 0.755 µM; in [5], 30.8 µM; in experiment [6], 0.29 µM. In addition, the GI50 in experiment [7] was 0.433 µM; in experiment [8], 0.369 µM. The TGI in experiment [1] is greater than 22.2 µM; in experiment [2] it was greater than 100 µM; in experiment [3], greater than 100 µM; in experiment [4] it was greater than 100 µM; in [5], greater than 100 µM; in [6], 1.08 µM. Further, the TGI in experiment [7] and in [8] was greater than 100 µM throughout.
For the compound `CCc1ccc2nccc(NCCCN(C)C)c2c1[N+](=O)[O-]`, the TGI in experiment [1], in experiment [2], in experiment [3], in experiment [4], in experiment [5] and in experiment [6] was greater than 100 µM each time. The results for the TGI in experiment [7] and in [8] were greater than 100 µM and 67.4 µM, respectively.
Consider `CCOC(=O)C(C)(C)Oc1ccc2c(-c3ccc(Cl)cc3)c(-c3ccc(Cl)cc3)c(=O)oc2c1`, for which the TGI in [1], in [2], in experiment [9], in [4], in [5] and in [8] was greater than 100 µM each time.
